Literature values, collected in patent publication US8142802B2, “Insecticidal composition with enhanced synergistic activity” (priority 2003, dated 2012).

Conditions: at room temperature

COP(=O)(NC(C)=O)SC (stereo not shown) [Acephate]
solubility in acetone: > 100 mg/mL | solubility in aromatic solvents: < 50 mg/mL | solubility in ethanol: > 100 mg/mL | solubility in water: about 650 g/l
